In test [1] the test system is MRSA USA300LAC. The experiment in a line: MIC by broth microdilution (CLSI). Format: cell-based, Staphylococcus aureus. Particulars: Staphylococcus aureus; MRSA USA300LAC; MHB, 37 °C, 16 h; read-out: MIC. On the technique in general: In broth dilution the organism is exposed to a series of concentrations in liquid medium.
Another test has as its system S. aureus/MRSA strains. The experiment in a line: MIC by broth microdilution, S. aureus/MRSA strains. The format is cell-based, Staphylococcus aureus. To be noted: S. aureus/MRSA strains tested, strain not singled out. An excerpt: To assess the impact of the nitrogen position in our newly synthesized anaephene derivates, we analyzed their antimicrobial activities against various S. aureus strains, including ATCC 25,923 and the two methicillin-resistant S. aureus (MRSA) strains ATCC 33,591 and ATCC BAA-44. […] We determined the minimum inhibitory concentrations (MIC) of each of our compounds against the different bacterial strains by broth microdilution following the CLSI guidelines. As expected, all five compounds tested were completely ineffective against the Gram-negative P. aeruginosa strain ATCC 27,853 (Table 1).
The MIC values of the alkyl pyridinol derivatives against the S. aureus strain ATCC 25923, MRSA strains ATCC 33591, ATCC BAA-44, and USA300LAC, as well as the P. aeruginosa strain ATCC 27853, were determined by following the CLSI guidelines for the broth microdilution antibiotic sensitivity testing protocol. In brief, the overnight cultures were diluted into Mueller Hinton Broth (MHB) to a final inoculum concentration of 5 × 10^5 CFU/mL (O.D600nm = 0.00001) and dispensed into a 96-well polystyrene plate (Alkali Scientific, Fort Lauderdale, FL, USA). Alkyl pyridine compounds were diluted into inoculated MHB to the indicated concentrations from stock solutions that would allow for DMSO concentrations below 5%, resulting in a total volume of 200 μL per well. The plates were subsequently incubated at 37 °C for 16 h at 300 rpm. The MIC values, which are defined as the lowest compound concentration that inhibited growth, were determined from three biological replicates.

Test [2] concerns MRSA USA300LAC. The experiment in a line: Minimal bactericidal concentration (MBC). Format: cell-based, Staphylococcus aureus. Particulars: for MBC: Staphylococcus aureus, MRSA USA300LAC, concentration at which no CFUs were observed; for bactericidal or bacteriostatic effect: USA300LAC, in words. On the procedure: In brief, 10 µL of each culture was serially diluted and plated onto prewarmed LB agar and incubated overnight at 37 °C under static conditions to observe the colony-forming units (CFUs). The concentration at which no CFUs were observed was recorded as the MBC.

Test [3] relates to 3T3 mouse embryonic fibroblast cells. The experiment in a line: MTT cytotoxicity assay. The format is cell-based. To be noted: 3T3 cells; for IC50: Mus musculus, NIH3T3, 24 h. How it is done: To gauge the potential for toxicity of the new alkyl pyridinol derivates, we tested their cytotoxicity by examining the metabolic activity of 3T3 mouse embryonic fibroblast cells using the tetrazolium dye 3-(4,5-dimethylthiazol-2-yl)-2,5-diphenyltetrazolium bromide (MTT), as has been done before. The dye is reduced by NAD(P)H-dependent cellular oxidoreductases, resulting in the formation of the insoluble formazan with its purple color, which can be quantified. 3T3 cells were treated with different concentrations of the alkyl pyridinol compounds for 24 h, and the absorbance of the MTT-treated cell culture supernatant was measured at 540 nm. Absorbances were plotted against concentrations of the compound added (Supplementary Figure S2), and IC50, the concentration of a drug required for 50% metabolic inhibition, was calculated for each compound. […] However, the concentrations at which these compounds compromise 3T3 mouse embryonic fibroblast cells are well above their reported MICs (Table 2).
3T3 cells (male mouse embryonic fibroblast Flp-In cells, Thermo Fisher, Waltham, MA, USA) were cultured in D-MEM (Corning, Corning, NY, USA) supplemented with 10% Fetal Clone III (Cytiva Hyclone, Bengaluru, India) and L-Glutamine (Alfa Aesar, Haverhill, MA, USA) at 37 °C and 5% CO2. To determine the compound’s toxicity, 3T3 cells were seeded at a density of 10,000 cells/well into 96-well plates (Fisherbrand, Waltham, MA, USA) and cultured as described above. After 16 h, the culture medium was extracted and replaced by supplemented D-MEM without phenol red (Corning, Glendale, AZ, USA) containing individual compounds in the indicated concentrations. Furthermore, 1% sodium dodecyl sulfate (SDS) and 2% dimethyl sulfoxide (DMSO), equivalent to the volume of the DMSO in the highest compound concentration, were used as the cell death and vehicle control, respectively. Moreover, 16 h after compound treatment, the culture medium was extracted again and replaced by fresh supplemented D-MEM without phenol red. Subsequently, 10 µL of 5 mg/mL MTT reagent (Alfa Aesar, Haverhill, MA, USA), dissolved in DMSO, was added to each well, and the cells were incubated for 2 h at 37 °C and 5% CO2. Next, 85 µL of the culture supernatant was removed from each well, mixed with 50 µL of DMSO, and incubated in an optical grade 96-well plate (Fisherbrand, Waltham, MA, USA) in a shaking incubator at 37 °C and 250 rpm. The absorbance of the MTT-treated cell culture supernatant was measured at 540 nm in an ELx808 plate reader (Biotek, Winooski, VT, USA).

A further test deals with USA300LAC cells. The experiment in a line: Propidium iodide uptake assay (membrane damage). Format: cell-based, Staphylococcus aureus. From the text: The alkyl pyridinol derivates synthesized in this study are characterized by high lipophilicity. To determine whether and to what extent these compounds incorporate into and disrupt the phospholipid bilayer of the S. aureus cell envelope, we performed a propidium iodide (PI) uptake assay. Given the membrane-impermeable nature of PI, the fluorophore can be used to assess membrane disruption in cells by measuring its non-specific interaction with DNA, which leads to enhanced fluorescence. […] The extent of membrane damage caused by JC-01-074 occurred in a dose-dependent manner.
Figure 4 JC-01-074 causes significant membrane damage in S. aureus. Membrane damage was evaluated via propidium iodide (PI) staining. […] Treatment of USA300LAC with 2.5% DMSO, 4 µg/mL vancomycin, and 0.25% SDS were included as negative and positive controls, respectively. Cells were collected, washed, resuspended in PBS, and stained with 1 µM PI. PI fluorescence was measured (exc./em. wavelengths: 535/615 nm) and normalized to OD600nm. One-way ANOVA, Dunnett’s multiple-comparison test (* p < 0.05, **** p < 0.0001); (n = 3, ±S.D.).
The plasma membrane integrity was determined using the Propidium Iodide Uptake assay, as previously described. Briefly, the overnight cultures of USA300LAC were diluted into fresh TSB media, grown to an early log phase at 37 °C and 300 rpm, and treated with either DMSO, an alkyl pyridinol derivate, vancomycin, or SDS at the indicated concentrations for 1 h. Following two washing steps, the cells were then resuspended in phosphate-buffered saline (PBS), pH = 7.4, and subsequently stained with 1 µM propidium iodide (PI). The PI fluorescence intensity was determined at an excitation wavelength of 535 nm and an emission wavelength of 615 nm.

[4] abbreviates: Staphylococcus aureus, MRSA, read-out: MIC.
[5] abbreviates: 24 hours, one value per biological replicate, read-out: IC50 of single biological replicates (Figure S2).
The mark [6] stands for this setting: 24 h treatment, mean ± S.D., read-out: IC50.

Converted amounts (≈) assume the structure as drawn. “And” between values parts separate entries of the source, which are not always exact repeats. Equal values may be shown once. “Also recorded” adds a separate entry of the source. Read-outs that look alike come from different tables or passages of the source.

As usually defined, the MIC is the lowest concentration found to suppress growth. As a reminder, the MBC is the lowest tested concentration that kills the bacteria rather than only halting them. A low value points to greater bactericidal potency. A word on the IC50: it is the concentration that inhibits the measured activity by half. For the compound `CCCCCCCCCC#Cc1cncc(O)c1` [JC-01-072], the MIC was 8 µg/mL (≈ 32.6 µM) with MRSA USA300LAC [1], 4 to 8 µg/mL in the test on S. aureus/MRSA strains and 4 µg/mL (≈ 16.3 µM) with S. aureus/MRSA strains (setting [4]). In the test on MRSA USA300LAC [2], this compound had an MBC greater than 128 µg/mL. Moreover, the “bactericidal or bacteriostatic effect” value in the test on MRSA USA300LAC [2] is reported as “bacteriostatic; also recorded: no significant killing”. Besides, the “IC50 of single biological replicates (Figure S2)” value in test [3] (24 hours, one value per biological replicate, listed as JC-01-72) was 41.1 µg/ml and 27.6 µg/ml and 35 µg/ml. In addition, the IC50 in test [3] (setting [5]) was 47.1 µg/mL; in test [3] (setting [6]), 153 ± 33.8 µM. In the test on USA300LAC cells (up to 2× MIC, 1 h exposure), the “changes in PI intensity” value was “minimal changes”.

Turning to `CCCCCCCCCC#Cc1cccc(O)n1` [JC-01-074], the minimal inhibitory concentration (MIC) in the test on MRSA USA300LAC [1] and with S. aureus/MRSA strains (setting [4]) was 16 µg/mL (≈ 65.2 µM) in each case. Besides, the MBC with MRSA USA300LAC [2] is 16 µg/mL (≈ 65.2 µM). For the same compound, the “bactericidal or bacteriostatic effect” value in the test with MRSA USA300LAC [2] is on record as “bactericidal”. Moreover, in test [3] (24 hours, one value per biological replicate, listed as JC-01-74), the “IC50 of single biological replicates (Figure S2)” value is 27.1 µg/ml and 26.7 µg/ml. Besides, the figures for the 50% inhibitory concentration (IC50) in test [3] (setting [5]) and in test [3] (setting [6]) were 22.9 µg/mL and 104 ± 9.4 µM, respectively. In addition, the “PI fluorescence compared to DMSO-treated control” value in the test on USA300LAC cells (1 h treatment at MIC ([…] µg/mL)) is “about five-fold higher PI fluorescence”.

The values are drawn from paper PMC11428593 (Antibiotics, 2024).
